Measured values taken from patent US20250115636A1, “PEPTIDOMIMETIC INHIBITORS OF PROTEIN N-TERMINAL […] 1, COMPOSITION, AND METHOD OF USE” (Purdue Research Foundation, priority 2022, published 2025).
Like-named read-outs stand apart in the source and are kept apart here.

Columns and labels:
[1] = tested on: panel of 41 methyltransferases; settings: among a panel of 41 methyltransferases; cited from earlier work
NTMT1 [2] = biological target: T1, NTMT1 (Homo sapiens, UniProt Q9BV86); settings: cited from earlier work
T1 construct: made in house
T1 sequence (Q9BV86 1-223): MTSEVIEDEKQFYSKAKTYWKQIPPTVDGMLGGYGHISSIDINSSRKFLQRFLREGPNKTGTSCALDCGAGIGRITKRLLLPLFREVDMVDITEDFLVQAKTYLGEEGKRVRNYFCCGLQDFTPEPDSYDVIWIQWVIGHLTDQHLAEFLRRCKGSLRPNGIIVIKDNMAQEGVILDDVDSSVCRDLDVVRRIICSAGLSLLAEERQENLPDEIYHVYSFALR

NTMT1 [3] = biological target: T1, NTMT1; assay: NTMT1 biochemical assay (SAHH-coupled fluorescence assay)
HCT116 cells = assay: Cytotoxicity / cell viability, alamarBlue (resazurin) assay; assay type: cell-based; settings: Homo sapiens, HCT-116, normal HCT116 cells
Source text: To test this hypothesis, compound 1a was selected to evaluate its effects on both wild-type and NTMT1 knockout HCT116 cells (FIG. 3B).

in vitro = settings: PAMPA
Method: The stock solutions in 10 mM DMSO was diluted with PBS to a final concentration of 200 μM with 2% DMSO (v/v). Verapamil was added as a control. The pre-coated PAMPA plate system was warmed to room temperature, and the donor plate (bottom) was filled with 300 μL of the diluted sample solution while the acceptor plate (top) was filled with 200 μL of the buffer. […] The permeability of each compound was calculated using the formula:
• CD (t)=compound concentration in donor well at time t. • CA (t)=compound concentration in acceptor well at time t. • VD=donor well volume • VA=acceptor well volume • A=filter area • t=incubation time

[4] = tested on: cellular α-N-terminal methylation level in HCT116 cells; assay: Cellular N-terminal methylation assay (Western blot, anti-me3-SPK); assay type: cell-based, human; settings: for IC50: Homo sapiens, HCT-116, HCT116 cells, Western blot, n = 2
Method: (§1) FIGS. 4A-4C. Cellular N-terminal methylation assay of GD562 (1d), GD564 (1f), and GD573 (1e) in HCT116 cells. Representative Western blot results of the effects of GD562 (0-300 μM) on the cellular methylation level (n=2) (FIG. 4A). Representative Western blot results of the effects of GD564 (0-100 μM) on the cellular methylation level (n=2) (FIG. 4B). Representative Western blot results of the effects of GD573 (0-300 μM) on the cellular methylation level (n=2) (FIG. 4C). Image quantification was done using ImageJ software (NIH).
Cellular N-methylation level. […] The membrane was then blocked for 1 hour in 5% milk TBST solution and washed with 1×TBST solution three times. […] Image quantification was done using ImageJ software (NIH).

me3-SET [5] = assay: Cellular N-terminal methylation assay, me3-SET; assay type: cell-based; settings: Homo sapiens, HCT-116, HCT116 cells
Method: as §1, with “.” for “FIGS. 4A-4C. Cellular N-terminal methylation assay of GD562 (1d), GD564 (1f), and GD573 (1e) in HCT116 cells.”
(§2) […]. Cellular N-methylation level. […] The membrane was then blocked for 1 hour in 5% milk TBST solution and washed with 1×TBST solution three times. […] Image quantification was done using ImageJ software (NIH).

me3-RCC1 [6] = assay: Cellular N-terminal methylation assay, me3-RCC1; assay type: cell-based, human; settings: HCT116 cells; for IC50: Homo sapiens, HCT-116
Method: as §1, with “.” for “FIGS. 4A-4C. Cellular N-terminal methylation assay of GD562 (1d), GD564 (1f), and GD573 (1e) in HCT116 cells.”
as §2

me3-SET [7] = settings: at 300 μM in HCT116 cells, previously reported; cited from earlier work
me3-RCC1 [8] = settings: cited from earlier work
[9] = recombinant NTMT1, n = 2, mean ± SD

Row | Compound | IC50 (NTMT1 [3]; [9]) [nM] | GI50 (HCT116 cells) [µM] | Papp at 5 h, 200 μM (in vitro) [×10⁻⁶ cm/s] | IC50 [4] [µM] | also measured
1 | NCCCC[C@H](NC(=O)[C@@H]1CCCN1C(=O)Cc1ccc(O)cc1)C(=O)N[C@@H](CCCN=C(N)N)C(N)=O [BM30] | – | – | – | – | Selectivity for NTMT1/2 [1]: over 100 fold; IC50 (NTMT1 [2]; previously reported inhibitors): 890 ± 100 nM
2 | NCCCC[C@H](NC(=O)[C@@H]1CCCN1C(=O)Cc1cccc2ccccc12)C(=O)Nc1cccc(Br)c1 [Compound 1a] | 170 ± 8 | 48 to 135 | – | – | –
3 | NCCCC[C@H](NC(=O)[C@@H]1CCCN1C(=O)Cc1cccc2ccccc12)C(=O)Nc1ccc(Br)cc1 [Compound 1b] | 180 ± 7 | 48 to 135 | – | – | –
4 | NCCCC[C@H](NC(=O)[C@@H]1CCCN1C(=O)Cc1cccc2ccccc12)C(=O)NCc1ccccc1 [Compound 1c] | 910 ± 30 | > 300 | 0.24 ± 0.06 | < 300 | –
5 | NCCCC[C@H](NC(=O)[C@@H]1CCCN1C(=O)Cc1cccc2ccccc12)C(=O)NCCc1ccccc1 [Compound 1d] | – | > 300 | 0.26 ± 0.06 | ~50 | IC50 (me3-SET [5]; read-out: Cellular IC50 on N-terminal methylation of SET): ~50 µM; IC50 (me3-SET [5]; read-out: Cellular IC50 on me3-SET): ~50 µM; Increase in cellular inhibition activity on me3-RCC1 compared to DC541 (me3-RCC1 [6]): over 2 fold; IC50 (me3-RCC1 [6]; read-out: Cellular IC50 on N-terminal methylation of RCC1): ~50 µM; IC50 (me3-RCC1 [6]; read-out: Cellular IC50 on me3-RCC1): ~50 µM; Difference between enzymatic and cellular IC50 values [4]: ~50 fold
6 | NCCCC[C@H](NC(=O)[C@@H]1CCCN1C(=O)Cc1cccc2ccccc12)C(=O)NCCCc1ccccc1 [Compound 1e] | 650 ± 10 | > 300 | 0.17 ± 0.08 | ~100 | –
7 | NCCCC[C@H](NC(=O)[C@@H]1CCCN1C(=O)Cc1cccc2ccccc12)C(=O)NCC1CCCCC1 [Compound 1f] | 940 ± 30 | > 300 | 0.47 | ~100 | –
8 | NCCCC[C@H](NC(=O)[C@@H]1CCCN1C(=O)Cc1cccc2ccccc12)C(=O)NCc1cccc(Br)c1 [Compound 1g] | 580 ± 30 | – | 0.6 ± 0.1 | < 300 | –
9 | NCCCC[C@H](NC(=O)[C@@H]1CCCN1C(=O)Cc1cccc2ccccc12)C(=O)NCc1ccc(Br)cc1 [Compound 1h] | 820 ± 70 | – | 0.9 ± 0.2 | < 300 | –
10 | NCCCC[C@H](NC(=O)[C@@H]1CCCN1C(=O)Cc1cccc2ccccc12)C(=O)NCCc1ccc(-c2ccccc2)cc1 [Compound 1j] | – | – | 0.9 | – | IC50 (NTMT1 [3]): 2500 ± 90 nM
11 | NCCCC[C@H](NC(=O)[C@@H]1CCCN1C(=O)Cc1cccc2ccccc12)C(=O)NCCc1cccc(-c2ccccc2)c1 [Compound 1k] | 690 ± 80 | 48 to 135 | 1.3 | – | Permeability (in vitro): ±0.4 10^−6 cm/s
12 | NCCCC[C@H](NC(=O)[C@@H]1CCCN1C(=O)Cc1cccc2ccccc12)C(=O)Nc1ccccc1C(N)=O [DC541] | 340 ± 30 | – | – | – | IC50/IC50 (DC541) (NTMT1 [3]; ratio of NTMT1 IC50 to that of DC541): 1.0; Inhibition of me3-SET level (me3-SET [7]): did not show any inhibition; Decrease in inhibitory activity on recombinant NTMT1 compared to DC113 (NTMT1 [2]): ~3 fold; IC50 (me3-RCC1 [8]; HCT116, previously reported, read-out: Cellular IC50 on the me3-RCC1 level): ~100 µM; Enhancement of cellular inhibition compared to DC113 (me3-RCC1 [8]): about 10 fold
